Reference: patent US20250129430A1, “HIGH ATP-AFFINITY PROTEIN AS THERAPEUTIC TARGET FOR INTRACTABLE CANCER MOLECULAR SUBTYPES AND INHIBITOR THEREOF” (VeraVerse Co., Ltd., priority 2021, published 2025)

What was measured:
Assay in all cases: Cell viability drug screen, 12-point dose-response AUC
Format in all cases: cell-based, human
[1] = test system: SNU601; details: SNU601 cells, 72 hours
In short: (§1)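 Each cell line receives a twelve-point half-log titration of drug beginning 24 h after plating 5×10^3 cells per well. Following 72 h culture at 37 °C, luminescent signal is recorded and expressed versus vehicle. AUC is derived by the trapezoidal method.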

[2] = test system: NCC20; details: NCC20 cells, 72 hours
In short: as §1

[3] = test system: MKN45; details: 72 hours; for Average Area Under the Viability Curve (AUC), AUC norm value: MKN45 cells (non-SEM subtype)
In short: as §1

[4] = test system: MKN74; details: MKN74 cells, 72 hours
In short: as §1

[5] = test system: AGS; details: 72 hours; for Average Area Under the Viability Curve (AUC), AUC norm value: AGS cells (non-SEM subtype)
In short: as §1

[6] = test system: SNU620; details: SNU620 cells, 72 hours
In short: as §1

[7] = test system: SK4; details: 72 hours; for Average Area Under the Viability Curve (AUC), AUC norm value: SK4 cells (SEM subtype)
In short: as §1

[8] = test system: NCC59; details: NCC59 cells, 72 hours
In short: as §1

[9] = test system: YCC11; details: 72 hours; for Average Area Under the Viability Curve (AUC), AUC norm value: YCC11 cells (SEM subtype)
In short: as §1

[10] = test system: NCC24; details: NCC24 cells, 72 hours
In short: as §1

[11] = test system: YCC3; details: YCC3 cells, 72 hours
In short: as §1

[12] = test system: SNU638; details: SNU638 cells, 72 hours
In short: as §1

[13] = test system: SNU1; details: SNU1 cells, 72 hours
In short: as §1

[14] = test system: SNU1750; details: 72 hours; for Average Area Under the Viability Curve (AUC), AUC norm value: SNU1750 cells (SEM subtype)
In short: as §1

[15] = test system: SNU484; details: 72 hours; for Average Area Under the Viability Curve (AUC), AUC norm value: SNU484 cells (SEM subtype)
In short: as §1

[16] = test system: Hs746T; details: 72 hours; for Average Area Under the Viability Curve (AUC), AUC norm value: Hs746T cells (SEM subtype)
In short: as §1

[17] = test system: KATO3; details: KATO3 cells, 72 hours
In short: as §1

[18] = test system: SNU216; details: 72 hours; for Average Area Under the Viability Curve (AUC), AUC norm value: SNU216 cells (non-SEM subtype)
In short: as §1

[19] = test system: MKN28; details: MKN28 cells, 72 hours
In short: as §1

[20] = test system: SNU668; details: 72 hours; for Average Area Under the Viability Curve (AUC), AUC norm value: SNU668 cells (SEM subtype)
In short: as §1

[21] = test system: YCC2; details: YCC2 cells, 72 hours
In short: as §1

[22] = test system: NCI_N87; details: NCI_N87 cells, 72 hours
In short: as §1

[23] = test system: NCC19; details: NCC19 cells, 72 hours
In short: as §1

[24] = test system: SNU1967; details: SNU1967 cells, 72 hours
In short: as §1

[25] = test system: MKN1; details: MKN1 cells, 72 hours
In short: as §1

[26] = test system: SNU16; details: SNU16 cells, 72 hours
In short: as §1

[27] = test system: OCUM1; details: OCUM1 cells, 72 hours
In short: as §1

[28] = test system: SNU719; details: SNU719 cells, 72 hours
In short: as §1

[29] = test system: FU97; set-up: Average Area Under the Viability Curve (AUC), AUC norm value: scale not given here; details: FU97 cells, 72 hours
In short: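 Trapezoidal AUC of a 12-point, DMSO-normalized dose-response curve. Luminescent viability was measured after 72 h of exposure at 37° C to half-log serial dilutions (0.5% DMSO control), dosed 24 h after plating FU97 cells at 5×10^3 per well.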

Compound: CC(C)(C)c1ccc(C(O)CCCN2CCC(C(O)(c3ccccc3)c3ccccc3)CC2)cc1 (stereo not drawn) [Terfenadine]
- Average Area Under the Viability Curve (AUC), AUC norm value [1]: 2.641
- Average Area Under the Viability Curve (AUC), AUC norm value [2]: −1.029
- Average Area Under the Viability Curve (AUC), AUC norm value [3]: −0.5441
- Average Area Under the Viability Curve (AUC), AUC norm value [4]: −1.589
- Average Area Under the Viability Curve (AUC), AUC norm value [5]: −1.278
- Average Area Under the Viability Curve (AUC), AUC norm value [6]: 0.4918
- Average Area Under the Viability Curve (AUC), AUC norm value [7]: −0.8713
- Average Area Under the Viability Curve (AUC), AUC norm value [8]: 2.3563
- Average Area Under the Viability Curve (AUC), AUC norm value [9]: −0.996
- Average Area Under the Viability Curve (AUC), AUC norm value [10]: −2.355
- Average Area Under the Viability Curve (AUC), AUC norm value [11]: 1.423
- Average Area Under the Viability Curve (AUC), AUC norm value [12]: −0.8091
- Average Area Under the Viability Curve (AUC), AUC norm value [13]: 1.34
- Average Area Under the Viability Curve (AUC), AUC norm value [14]: −0.05758
- Average Area Under the Viability Curve (AUC), AUC norm value [15]: 0.06057
- Average Area Under the Viability Curve (AUC), AUC norm value [16]: −0.3246
- Average Area Under the Viability Curve (AUC), AUC norm value [17]: 0.4901
- Average Area Under the Viability Curve (AUC), AUC norm value [18]: 1.499
- Average Area Under the Viability Curve (AUC), AUC norm value [19]: −0.2901
- Average Area Under the Viability Curve (AUC), AUC norm value [20]: −0.5647
- Average Area Under the Viability Curve (AUC), AUC norm value [21]: 0.4862
- Average Area Under the Viability Curve (AUC), AUC norm value [22]: 1.465
- Average Area Under the Viability Curve (AUC), AUC norm value [23]: 3.135
- Average Area Under the Viability Curve (AUC), AUC norm value [24]: −1.065
- Average Area Under the Viability Curve (AUC), AUC norm value [25]: −0.8127
- Average Area Under the Viability Curve (AUC), AUC norm value [26]: 0
- Average Area Under the Viability Curve (AUC), AUC norm value [27]: 1.032
- Average Area Under the Viability Curve (AUC), AUC norm value [28]: 1.059
- Average Area Under the Viability Curve (AUC), AUC norm value [29]: 1.163

Compound: O=C(/C=C/c1cccc(S(=O)(=O)Nc2ccccc2)c1)NO [Belinostat (PXD101), Belinostat]
- Average Area Under the Viability Curve (AUC), AUC norm value [1]: 1.495
- Average Area Under the Viability Curve (AUC), AUC norm value [2]: 0
- Average Area Under the Viability Curve (AUC), AUC norm value [3]: 2.493
- Average Area Under the Viability Curve (AUC), AUC norm value [4]: −0.1835
- Average Area Under the Viability Curve (AUC), AUC norm value [5]: −0.9372
- Average Area Under the Viability Curve (AUC), AUC norm value [6]: −1.0681
- Average Area Under the Viability Curve (AUC), AUC norm value [7]: −0.3048
- Average Area Under the Viability Curve (AUC), AUC norm value [8]: 2.683
- Average Area Under the Viability Curve (AUC), AUC norm value [9]: −0.5556
- Average Area Under the Viability Curve (AUC), AUC norm value [10]: −1.095
- Average Area Under the Viability Curve (AUC), AUC norm value [11]: 1.065
- Average Area Under the Viability Curve (AUC), AUC norm value [12]: −0.5011
- Average Area Under the Viability Curve (AUC), AUC norm value [13]: 0.1147
- Average Area Under the Viability Curve (AUC), AUC norm value [14]: −0.902
- Average Area Under the Viability Curve (AUC), AUC norm value [15]: 0.9966
- Average Area Under the Viability Curve (AUC), AUC norm value [16]: 0.5598
- Average Area Under the Viability Curve (AUC), AUC norm value [17]: 0.7544
- Average Area Under the Viability Curve (AUC), AUC norm value [18]: −0.2541
- Average Area Under the Viability Curve (AUC), AUC norm value [19]: −0.3952
- Average Area Under the Viability Curve (AUC), AUC norm value [20]: 0.6908
- Average Area Under the Viability Curve (AUC), AUC norm value [21]: 0.1706
- Average Area Under the Viability Curve (AUC), AUC norm value [22]: 0.02343
- Average Area Under the Viability Curve (AUC), AUC norm value [23]: 1.206
- Average Area Under the Viability Curve (AUC), AUC norm value [24]: −0.3122
- Average Area Under the Viability Curve (AUC), AUC norm value [25]: 0.9981
- Average Area Under the Viability Curve (AUC), AUC norm value [26]: −1.577
- Average Area Under the Viability Curve (AUC), AUC norm value [27]: −0.225
- Average Area Under the Viability Curve (AUC), AUC norm value [28]: 2.329
- Average Area Under the Viability Curve (AUC), AUC norm value [29]: −0.9726

Compound: C/C(=C\c1csc(C)n1)[C@@H]1C[C@@H]2O[C@@H]2CCC[C@H](C)[C@H](O)[C@@H](C)C(=O)C(C)(C)[C@@H](O)CC(=O)O1 [Epothilone A]
- area under the viability curve (AUC), normalized ([1]; 12-point dose-response): −0.2006
- area under the viability curve (AUC), normalized ([2]; 12-point dose-response): −0.5459
- area under the viability curve (AUC), normalized ([3]; MKN45 cells, 12-point dose-response): 0.6604
- area under the viability curve (AUC), normalized ([4]; 12-point dose-response): 0.2913
- area under the viability curve (AUC), normalized ([5]; AGS cells, 12-point dose-response): −1.655
- area under the viability curve (AUC), normalized ([6]; 12-point dose-response): −2.268
- area under the viability curve (AUC), normalized ([7]; SK4 cells, 12-point dose-response): −0.9541
- area under the viability curve (AUC), normalized ([8]; 12-point dose-response): 3.583
- area under the viability curve (AUC), normalized ([9]; YCC11 cells, 12-point dose-response): −1.2702
- area under the viability curve (AUC), normalized ([10]; 12-point dose-response): −1.8431
- area under the viability curve (AUC), normalized ([11]; 12-point dose-response): 2.8742
- area under the viability curve (AUC), normalized ([12]; 12-point dose-response): 0.3118
- area under the viability curve (AUC), normalized ([13]; 12-point dose-response): −1.75
- area under the viability curve (AUC), normalized ([14]; SNU1750 cells, 12-point dose-response): 1.039
- area under the viability curve (AUC), normalized ([15]; SNU484 cells, 12-point dose-response): −0.4364
- area under the viability curve (AUC), normalized ([16]; Hs746T cells, 12-point dose-response): 1.217
- area under the viability curve (AUC), normalized ([17]; 12-point dose-response): 4.761
- area under the viability curve (AUC), normalized ([18]; SNU216 cells, 12-point dose-response): 2.403
- area under the viability curve (AUC), normalized ([19]; 12-point dose-response): −1.4393
- area under the viability curve (AUC), normalized ([20]; SNU668 cells, 12-point dose-response): −0.2909
- area under the viability curve (AUC), normalized ([21]; 12-point dose-response): 0.1784
- area under the viability curve (AUC), normalized ([22]; 12-point dose-response): −1.51
- area under the viability curve (AUC), normalized ([23]; 12-point dose-response): 0
- area under the viability curve (AUC), normalized ([24]; 12-point dose-response): 0.6477
- area under the viability curve (AUC), normalized ([25]; 12-point dose-response): −1.14
- area under the viability curve (AUC), normalized ([26]; 12-point dose-response): −1.12
- area under the viability curve (AUC), normalized ([27]; 12-point dose-response): 1.699
- area under the viability curve (AUC), normalized ([28]; 12-point dose-response): 4.484
- area under the viability curve (AUC), normalized ([29]; 12-point dose-response): 0.9454
